From patent US5393729A, “3-aryl-pyrone derivatives” (Bayer Aktiengesellschaft, priority 1992, dated 1995)

Tested on: Nippostrongylus
Assay: Nippostrongylus in vitro (acetylcholine esterase determination)
Design: species or system Nippostrongylus brasiliensis
Conditions: read-out: inhibition of the enzyme (full activity)
Procedure: Nippostrongylus are isolated from the small intestine of rats and washed with 0.9% of NaCl supplemented with 29 μg/ml sisomycin and 2 μg/ml of clotrimazole. The actual incubation of in each case 5 male and female Nippostrongylus is carried out in 1.0 ml of medium used for determining the activity of acetylcholine esterase. Enzyme determination is by the method of Rapson et al., 1987 (E. B. Rapson, D. C. Jenkins, A. S. Chilwan), Improved detection of anthelmintic activity in vitro screen utilizing adult Nippostrongylus brasiliensis. Parasitol. Res. 1987 73, 190 to 191.
The following key is used for the assessment: 3=full activity, 100% inhibition of the enzyme; 2=good activity, more than 75% inhibition; 1=poor activity, less than 50% inhibition.

With `CCOC(=O)c1c(C)oc(=O)c(-c2c(C)cc(C)cc2C)c1O` [Example 1] the inhibition at 100 ppm was 100%.
